Source: ChEMBL document CHEMBL4765250, “Discovery of hydrazone containing thiadiazoles as Mycobacterium tuberculosis growth and enoyl acyl carrier protein reductase (InhA) inhibitors” (Eur J Med Chem, 2020)
≈ marks a conversion by molar mass, not a printed value.

Tests used:
[1] = tested on: Mycobacterium tuberculosis; assay: Antitubercular activity against Mycobacterium tuberculosis H37Rv measured after 7 days by MABA method; format: functional; conditions: 168 h, time 7 day
[2] = Cytotoxicity against mouse RAW264.7 cells assessed as decrease cell viability at 50 ug/ml measured after 48 hrs by MTT assay; format: cell-based; conditions: at 50 µg/mL, read-out: INH
[3] = biological target: T1, Enoyl-[acyl-carrier-protein] reductase [NADH] (Mycobacterium tuberculosis) (UniProt P9WGR1); assay: Inhibition of wild type InhA in Mycobacterium tuberculosis H37Rv using trans-2-dodecenoyl-coenzyme A as substrate at 5 uM
T1 sequence (whole entry): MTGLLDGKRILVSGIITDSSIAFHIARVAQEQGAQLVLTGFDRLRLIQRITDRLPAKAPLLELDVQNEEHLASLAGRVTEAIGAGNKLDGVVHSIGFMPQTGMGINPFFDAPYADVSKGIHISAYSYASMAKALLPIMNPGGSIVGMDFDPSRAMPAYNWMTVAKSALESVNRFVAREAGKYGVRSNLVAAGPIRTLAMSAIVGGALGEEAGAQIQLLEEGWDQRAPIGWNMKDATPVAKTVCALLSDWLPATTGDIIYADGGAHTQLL

[4] = tested on: Mycobacterium tuberculosis; assay: Antitubercular activity at Mycobacterium tuberculosis H37Rv in nutrition starved condition medium assessed as log reduction of cell growth at 10 ug/ml measured after 7 days by MPN method; format: functional; conditions: dose 10 µg/ml; time 7 day
[5] = Solubility of compound in aqueous buffer at pH 6.8; format: physicochemical

Compound	MIC [1]	cytotoxicity at 48 h, 50 ug/ml [2]	inhibition [3]	FC [4]	solubility [5]
Clc1ccc(Nc2nc(N/N=C/c3ccccc3)ns2)c(Cl)c1	4.29 µM (≈ 1.56 µg/mL)				
Cc1ccc(/C=N/Nc2nsc(Nc3ccc(Br)cc3)n2)cc1	> 64.4 µM				
Cc1ccc(/C=N/Nc2nsc(Nc3ccc([N+](=O)[O-])cc3)n2)cc1	> 70.6 µM				
Cc1ccc(/C=N/Nc2nsc(Nc3ccc(I)cc3)n2)cc1	3.59 µM (≈ 1.56 µg/mL)	21.1%			
Cc1ccc(/C=N/Nc2nsc(Nc3ccc(Cl)cc3Cl)n2)cc1	8.27 µM (≈ 3.13 µg/mL)	33.1%	48%		
C(=N\Nc1nsc(Nc2ccccc2)n1)/c1ccccc1	> 84.8 µM				
COc1ccc(Nc2nc(N/N=C/c3ccccc3)ns2)cc1	2.4 µM (≈ 0.781 µg/mL)	24.6%		2.2	
Fc1ccc(Nc2nc(N/N=C/c3ccccc3)ns2)cc1	> 79.9 µM				
FC(F)(F)c1ccc(Nc2nc(N/N=C/c3ccccc3)ns2)cc1	34.4 µM (≈ 12.5 µg/mL)				
Brc1ccc(Nc2nc(N/N=C/c3ccccc3)ns2)cc1	4.17 µM (≈ 1.56 µg/mL)	25.8%	39%		
Cc1ccc(/C=N/Nc2nsc(Nc3ccc(F)cc3)n2)cc1	> 76.5 µM		26%		
Cc1ccc(Nc2nc(N/N=C/c3ccccc3)ns2)cc1	2.52 µM (≈ 0.78 µg/mL)	31.5%	48%	2.4	
Cc1ccc(/C=N/Nc2nsc(Nc3ccc(C)cc3)n2)cc1	> 77.4 µM				
CC[C@@H](CO)NCCN[C@@H](CC)CO [ETHAMBUTOL]	7.6 µM (≈ 1.55 µg/mL)				
O=[N+]([O-])c1ccc(Nc2nc(N/N=C/c3ccccc3)ns2)cc1	73.5 µM (≈ 25 µg/mL)				
COc1ccc(Nc2nc(N/N=C/c3ccc(C)cc3)ns2)cc1	> 73.8 µM				
Cc1ccc(/C=N/Nc2nsc(Nc3ccc(C(F)(F)F)cc3)n2)cc1	16.6 µM (≈ 6.26 µg/mL)	29.1%	35%		
Cc1ccc(/C=N/Nc2nsc(Nc3ccccc3)n2)cc1	> 80.9 µM				
NNC(=O)c1ccncc1 [ISONIAZID]	0.36 µM (≈ 0.0494 µg/mL)			1.4	
CO[C@H]1/C=C/O[C@@]2(C)Oc3c(C)c(O)c4c(O)c(c(/C=N/N5CCN(C)CC5)c(O)c4c3C2=O)NC(=O)/C(C)=C\C=C\[C@H](C)[C@H](O)[C@@H](C)[C@@H](O)[C@@H](C)[C@H](OC(C)=O)[C@@H]1C [RIFAMPIN]	0.12 µM (≈ 0.0988 µg/mL)			1.6	
Ic1ccc(Nc2nc(N/N=C/c3ccccc3)ns2)cc1	59.4 µM (≈ 25 µg/mL)				Insoluble
